From patent publication US12427192B2, “Water soluble adjuvant and composition containing same” (Sumitomo Pharma Co., Ltd., priority 2019, dated 2025)

How the values were obtained:
[1] = system: HLA-A*02:01 transgenic mouse; assay: Test 14: in vivo adjuvant activity, cocktail vaccine i (oily suspension formulation), IFNγ ELISPOT; conditions: added to cocktail vaccine i (oily suspension formulation); 0.04 nmol or 0.4 nmol per body, twice; FIG. 15 and 16
Experimental: (§1) Evaluation of In Vivo Adjuvant Activity in HLA-A*02:01 Transgenic Mouse
The in vivo adjuvant activity of the compound of Example 1 was evaluated in the following procedure. To a cocktail vaccine (oily suspension formulation) comprising Compound of formula 4 prepared in Reference example 8 and Peptide SEQ ID No. 3 prepared in Reference example 3 (hereinafter, referred to as “cocktail vaccine i”) was added the compound prepared in Example 1 to prepare a vaccine. The vaccine was administered to a HLA-A*02:01 transgenic mouse, and the adjuvant activity of the vaccine was evaluated by the method of testing antigen-specific CTL induction.
For example, the above oily suspension formulation was prepared as follows. […]
Cocktail vaccine i was injected to mice intradermally at the tail base area in an amount for administering 300 μg of Compound of formula 4 per body and 225 μg of Peptide SEQ ID No. 3 per body. […] Then, after removal of the supernatant from the wells, stained spots on the ELISPOT plate were counted.

[2] = system: HLA-A*02:01 transgenic mouse; assay: Test 18: in vivo adjuvant activity, cocktail vaccine m (liposome formulation 3), IFNγ ELISPOT; conditions: added to cocktail vaccine m (liposome formulation 3); 0.4 nmol per body, twice; FIG. 22
Experimental: as §1
The in vivo adjuvant activity of the compound of Example 1 was evaluated in the following procedure. To a vaccine (liposome formulation 3) comprising Compound of formula 4 prepared in Reference example 8 and Peptide SEQ ID No. 3 prepared in Reference example 3 (hereinafter, referred to as “cocktail vaccine m”) was added the compound prepared in Example 1 to prepare a vaccine. The vaccine was administered to a HLA-A*02:01 transgenic mouse, and the adjuvant activity of the vaccine was evaluated by the method of testing antigen-specific CTL induction.
For example, the above liposome formulation 3 was prepared as follows. 36.7 mg of 1,2-dipalmitoyl-sn-glycero-3-phosphocholine, 7.58 mg of 1,2-dipalmitoyl-sn-glycero-3-phospho-L-serine sodium salt, and 15.47 mg of cholesterol were dissolved in t-butyl alcohol/water mixture, and the mixture was lyophilized. […]
Cocktail vaccine m was injected to mice intradermally at the tail base area in an amount for administering 500 μg of Compound of formula 4 per body and 375 μg of Peptide SEQ ID No. 3 per body. […] Then, after removal of the supernatant from the wells, stained spots on the ELISPOT plate were counted.

[3] = Spleen weight in the mice tested in Tests 11-18; format: in vivo, mouse

Compound: CCCCCNc1nc(N)nc(C)c1Cc1ccc(CN(C)CCOCCOCCOCCOCCO)cc1OC [Example 1, 1-(4-{[2-amino-4-methyl-6-(pentylamino)pyrimidin-5-yl]methyl}-3-methoxyphenyl)-2-methyl-5,8,11,14-tetraoxa-2-azahexadecan-16-ol·trifluoroacetate]
- CTL counts responsive to Peptide SEQ ID No. 1 or SEQ ID No. 4 compared with adding no compound [1]: more
- CTL counts responsive to Peptide SEQ ID No. 1 compared with adding no compound [2]: more
- spleen weight ([3]; mice tested in Tests 11-13 (emulsified compositions), FIG. 26): does not induce a pronounced increase of spleen weight
- spleen weight ([3]; mice tested in Tests 14 and 15 (oily suspension, hydrogel), FIG. 27): does not induce a pronounced increase of spleen weight
- spleen weight ([3]; mice tested in Tests 16-18 (liposome formulations), FIG. 28): does not induce a pronounced increase of spleen weight
